Assays:
Type in all cases: cell-based
[1] = test system: Septoria glycines; assay: Septoria glycines growth inhibition in liquid culture (microtiter plate, visual)
Description: A synergistic effect exists whenever the action of an active ingredient combination is greater than the sum of the actions of the individual components. The action to be expected E for a given active ingredient combination obeys the so-called COLBY formula and can be calculated as follows (COLBY, S. R. “Calculating synergistic and antagonistic responses of herbicide combination”. Weeds, Vol. 15, pages 20-22; 1967): • ppm=milligrams of active ingredient (=a.i.) per liter of spray mixture • X=% action by active ingredient A) using p ppm of active ingredient • Y=% action by active ingredient B) using q ppm of active ingredient. According to COLBY, the expected (additive) action of active ingredients A)+B) using p+q ppm of active ingredient is: If the action actually observed (O) is greater than the expected action (E), then the action of the combination is super-additive, i.e. there is a synergistic effect. In mathematical terms, synergism corresponds to a positive value for the difference of (O-E). In the case of purely complementary addition of activities (expected activity), said difference (O-E) is zero. A negative value of said difference (O-E) signals a loss of activity compared to the expected activity. Septoria glycines (Brown Spot): Conidia of the fungus from cryogenic storage were directly mixed into nutrient broth ([…] potato dextrose broth). A DMSO solution of the test compounds was placed into a microtiter plate (96-well format) and the nutrient broth containing the fungal spores was added to it. The test plates were incubated at 24° C. and the inhibition of growth was determined visually after 72 hrs.

[2] = test system: Corynespora cassiicola; assay: Corynespora cassiicola growth inhibition in liquid culture (microtiter plate, photometric); conditions: for Observed Activity (%): A-1.3 0 ppm
Description: A synergistic effect exists whenever the action of an active ingredient combination is greater than the sum of the actions of the individual components. The action to be expected E for a given active ingredient combination obeys the so-called COLBY formula and can be calculated as follows (COLBY, S. R. “Calculating synergistic and antagonistic responses of herbicide combination”. Weeds, Vol. 15, pages 20-22; 1967): • ppm=milligrams of active ingredient (=a.i.) per liter of spray mixture • X=% action by active ingredient A) using p ppm of active ingredient • Y=% action by active ingredient B) using q ppm of active ingredient. According to COLBY, the expected (additive) action of active ingredients A)+B) using p+q ppm of active ingredient is: If the action actually observed (O) is greater than the expected action (E), then the action of the combination is super-additive, i.e. there is a synergistic effect. In mathematical terms, synergism corresponds to a positive value for the difference of (O-E). In the case of purely complementary addition of activities (expected activity), said difference (O-E) is zero. A negative value of said difference (O-E) signals a loss of activity compared to the expected activity. Corynespora cassiicola (Target Spot of Soybean, Target Leaf Spot of Tomato): Conidia of the fungus from cryogenic storage were directly mixed into nutrient broth (PDB potato dextrose broth). A DMSO solution of the test compounds was placed into a microtiter plate (96-well format) and the nutrient broth containing the fungal spores was added to it. The test plates were incubated at 24° C. and the inhibition of growth was determined photometrically after 3-4 days at 620 nm. Rates and results are set out in the following tables: […]

[3] = test system: Mycosphaerella arachidis Syn. Cercospora arachidicola; assay: Mycosphaerella arachidis growth inhibition in liquid culture (microtiter plate, photometric); conditions: for Observed Activity (%): A-1.3 0 ppm
Description: A synergistic effect exists whenever the action of an active ingredient combination is greater than the sum of the actions of the individual components. The action to be expected E for a given active ingredient combination obeys the so-called COLBY formula and can be calculated as follows (COLBY, S. R. “Calculating synergistic and antagonistic responses of herbicide combination”. Weeds, Vol. 15, pages 20-22; 1967): • ppm=milligrams of active ingredient (=a.i.) per liter of spray mixture • X=% action by active ingredient A) using p ppm of active ingredient • Y=% action by active ingredient B) using q ppm of active ingredient. According to COLBY, the expected (additive) action of active ingredients A)+B) using p+q ppm of active ingredient is: If the action actually observed (O) is greater than the expected action (E), then the action of the combination is super-additive, i.e. there is a synergistic effect. In mathematical terms, synergism corresponds to a positive value for the difference of (O-E). In the case of purely complementary addition of activities (expected activity), said difference (O-E) is zero. A negative value of said difference (O-E) signals a loss of activity compared to the expected activity. Mycosphaerella arachidis Syn. Cercospora arachidicola (Brown Leaf Spot of Peanut): Conidia of the fungus from cryogenic storage were directly mixed into nutrient broth (PDB potato dextrose broth). A DMSO solution of the test compounds was placed into a microtiter plate (96-well format) and the nutrient broth containing the fungal spores was added to it. The test plates were incubated at 24° C. and the inhibition of growth was determined photometrically after 5-6 days at 620 nm.

[4] = test system: Septoria tritici; assay: Septoria tritici growth inhibition in liquid culture (microtiter plate, photometric)
Description: A synergistic effect exists whenever the action of an active ingredient combination is greater than the sum of the actions of the individual components. The action to be expected E for a given active ingredient combination obeys the so-called COLBY formula and can be calculated as follows (COLBY, S. R. “Calculating synergistic and antagonistic responses of herbicide combination”. Weeds, Vol. 15, pages 20-22; 1967): • ppm=milligrams of active ingredient (=a.i.) per liter of spray mixture • X=% action by active ingredient A) using p ppm of active ingredient • Y=% action by active ingredient B) using q ppm of active ingredient. According to COLBY, the expected (additive) action of active ingredients A)+B) using p+q ppm of active ingredient is: If the action actually observed (O) is greater than the expected action (E), then the action of the combination is super-additive, i.e. there is a synergistic effect. In mathematical terms, synergism corresponds to a positive value for the difference of (O-E). In the case of purely complementary addition of activities (expected activity), said difference (O-E) is zero. A negative value of said difference (O-E) signals a loss of activity compared to the expected activity. Septoria tritici (Leaf Blotch): Conidia of the fungus from cryogenic storage were directly mixed into nutrient broth (PDB potato dextrose broth). A DMSO solution of the test compounds was placed into a microtiter plate (96-well format) and the nutrient broth containing the fungal spores was added to it. The test plates were incubated at 24° C. and the inhibition of growth was determined photometrically after 72 hrs.

## O=C(NC1CCC1c1ccc(Cl)cc1Cl)c1cccnc1C(F)(F)F (stereo in doubt) [Cyclobutrifluram]
[1]; Table 13: A-1.3 0 ppm, Cyclobutrifluram 0.05 ppm
  Observed Activity (%): 70%
[1]; Table 13: A-1.3 0 ppm, Cyclobutrifluram 0.1 ppm
  Observed Activity (%): 90%
[1]; Table 13: A-1.3 0 ppm, Cyclobutrifluram 0.2 ppm
  Observed Activity (%): 90%
[1]; Table 14: A-1.3 0 ppm, Cyclobutrifluram 0.0125 ppm
  Observed Activity (%): 20%
[1]; Table 14: A-1.3 0 ppm, Cyclobutrifluram 0.025 ppm
  Observed Activity (%): 50%
[1]; Table 14: A-1.3 0 ppm, Cyclobutrifluram 0.05 ppm
  Observed Activity (%): 70%
[1]; Table 14: A-1.3 0 ppm, Cyclobutrifluram 0.1 ppm
  Observed Activity (%): 70%
[1]; Table 14: A-1.3 0 ppm, Cyclobutrifluram 0.2 ppm
  Observed Activity (%): 90%
[2]; Cyclobutrifluram 0.0125 ppm
  Observed Activity (%): 0%
[2]; Cyclobutrifluram 0.025 ppm
  Observed Activity (%): 20%
[2]; Cyclobutrifluram 0.05 ppm
  Observed Activity (%): 50%

## CO/C=C(/C(=O)OC)c1ccccc1CSc1nc2ccccc2s1 [Benzothiostrobin]
[1]; Table 22: A-1.3 0 ppm, Benzothiostrobin 0.0125 ppm
  Observed Activity (%): 50%
[1]; Table 22: A-1.3 0 ppm, Benzothiostrobin 0.025 ppm
  Observed Activity (%): 70%
[1]; Table 22: A-1.3 0 ppm, Benzothiostrobin 0.05 ppm
  Observed Activity (%): 90%
[1]; Table 22: A-1.3 0 ppm, Benzothiostrobin 0.1 ppm
  Observed Activity (%): 90%
[1]; Table 22: A-1.3 0 ppm, Benzothiostrobin 0.2 ppm
  Observed Activity (%): 90%

## COC(=O)C(O)(Cn1cncn1)c1ccc(Oc2ccc(Cl)cc2)cc1C(F)(F)F (centres unmarked) [Compound A-1.3, Methyl 2-[4-(4-chlorophenoxy)-2-(trifluoromethyl)phenyl]-2-hydroxy-3-(1,2,4-triazol-1-yl)propanoate]
[1]; Septoria glycines, Table 13: A-1.3 0.03 ppm, Cyclobutrifluram 0 ppm, read-out: Observed Activity (%)
  inhibition at 0.03 ppm: 0%
[1]; Septoria glycines, Table 14: A-1.3 0.06 ppm, Cyclobutrifluram 0 ppm, read-out: Observed Activity (%)
  inhibition at 0.06 ppm: 20%
[3]; Mycosphaerella arachidis, A-1.3 0.03 ppm, Pyriofenone 0 ppm, read-out: Observed Activity (%)
  inhibition at 0.03 ppm: 50%
[4]; Zymoseptoria tritici, Table 11: A-1.3 0.03 ppm, Pyrisoxazole 0 ppm, read-out: Observed Activity (%)
  inhibition at 0.03 ppm: 0%
[4]; Zymoseptoria tritici, Table 12: A-1.3 0.06 ppm, Pyrisoxazole 0 ppm, read-out: Observed Activity (%)
  inhibition at 0.06 ppm: 70%
[2]; Corynespora cassiicola, A-1.3 0.03 ppm, Cyclobutrifluram 0 ppm, read-out: Observed Activity (%)
  inhibition at 0.03 ppm: 0%
[2]; Corynespora cassiicola, A-1.3 0.2 ppm, Pyrisoxazole 0 ppm, read-out: Observed Activity (%)
  inhibition at 0.2 ppm: 20%

## COc1ccnc(C(=O)N[C@@H](C)C(=O)O[C@@H](C)C(c2ccc(F)cc2)c2ccc(F)cc2)c1OC(C)=O [Florylpicoxamid]
[1]; Table 15: A-1.3 0 ppm, Florylpicoxamid 0.05 ppm
  Observed Activity (%): 70%
[1]; Table 15: A-1.3 0 ppm, Florylpicoxamid 0.1 ppm
  Observed Activity (%): 90%

## COc1c(F)c(F)c(C(=O)NCc2ncc(C(F)(F)F)cc2Cl)c(F)c1F [Fluopimomide]
[1]; Table 20: A-1.3 0 ppm, Fluopimomide 1.25 ppm
  Observed Activity (%): 0%
[1]; Table 20: A-1.3 0 ppm, Fluopimomide 2.5 ppm
  Observed Activity (%): 0%
[1]; Table 20: A-1.3 0 ppm, Fluopimomide 5 ppm
  Observed Activity (%): 0%
[1]; Table 20: A-1.3 0 ppm, Fluopimomide 10 ppm
  Observed Activity (%): 0%
[1]; Table 20: A-1.3 0 ppm, Fluopimomide 20 ppm
  Observed Activity (%): 0%

## Cc1nc2c(F)c(F)ccc2cc1Oc1cccc(F)c1C(C)(C)O [Ipflufenoquin]
[1]; Table 16: A-1.3 0 ppm, Ipflufenoquin 0.6125 ppm
  Observed Activity (%): 70%
[1]; Table 16: A-1.3 0 ppm, Ipflufenoquin 1.25 ppm
  Observed Activity (%): 90%

## CNC(=O)C(OC)c1ccccc1COc1cc(C)ccc1C (centres unmarked) [Mandestrobin]
[1]; Table 17: A-1.3 0 ppm, Mandestrobin 0.125 ppm
  Observed Activity (%): 50%
[1]; Table 17: A-1.3 0 ppm, Mandestrobin 0.25 ppm
  Observed Activity (%): 70%
[1]; Table 17: A-1.3 0 ppm, Mandestrobin 0.5 ppm
  Observed Activity (%): 90%
[1]; Table 18: A-1.3 0 ppm, Mandestrobin 0.25 ppm
  Observed Activity (%): 70%
[1]; Table 18: A-1.3 0 ppm, Mandestrobin 0.5 ppm
  Observed Activity (%): 70%
[1]; Table 18: A-1.3 0 ppm, Mandestrobin 1 ppm
  Observed Activity (%): 90%

## Cc1cccc(-n2nnn(C)c2=O)c1COc1ccn(-c2ccc(Cl)cc2)n1 [Metyltetraprole]
[1]; Table 19: A-1.3 0 ppm, Metyltetraprole 0.003125 ppm
  Observed Activity (%): 50%
[1]; Table 19: A-1.3 0 ppm, Metyltetraprole 0.00625 ppm
  Observed Activity (%): 70%
[1]; Table 19: A-1.3 0 ppm, Metyltetraprole 0.0125 ppm
  Observed Activity (%): 90%
[1]; Table 23: A-1.3 0 ppm, Metyltetraprole 0.003125 ppm
  Observed Activity (%): 20%
[1]; Table 23: A-1.3 0 ppm, Metyltetraprole 0.00625 ppm
  Observed Activity (%): 70%
[1]; Table 23: A-1.3 0 ppm, Metyltetraprole 0.0125 ppm
  Observed Activity (%): 70%
[1]; Table 23: A-1.3 0 ppm, Metyltetraprole 0.025 ppm
  Observed Activity (%): 90%
[1]; Table 23: A-1.3 0 ppm, Metyltetraprole 0.05 ppm
  Observed Activity (%): 90%
[1]; Table 23: A-1.3 0 ppm, Metyltetraprole 0.1 ppm
  Observed Activity (%): 90%

## COc1cc(C)c(C(=O)c2c(OC)ncc(Cl)c2C)c(OC)c1OC [Pyriofenone]
[1]; Table 21: A-1.3 0 ppm, Pyriofenone 1.25 ppm
  Observed Activity (%): 20%
[1]; Table 21: A-1.3 0 ppm, Pyriofenone 2.5 ppm
  Observed Activity (%): 20%
[1]; Table 21: A-1.3 0 ppm, Pyriofenone 5 ppm
  Observed Activity (%): 20%
[1]; Table 21: A-1.3 0 ppm, Pyriofenone 10 ppm
  Observed Activity (%): 20%
[1]; Table 21: A-1.3 0 ppm, Pyriofenone 20 ppm
  Observed Activity (%): 20%
[3]; Pyriofenone 2.5 ppm
  Observed Activity (%): 0%
[3]; Pyriofenone 5 ppm
  Observed Activity (%): 0%
[3]; Pyriofenone 10 ppm
  Observed Activity (%): 0%
[3]; Pyriofenone 20 ppm
  Observed Activity (%): 0%

## CN1OC(c2ccc(Cl)cc2)CC1(C)c1cccnc1 (centres unmarked) [Pyrisoxazole]
[4]; Table 11: A-1.3 0 ppm, Pyrisoxazole 0.25 ppm
  Observed Activity (%): 0%
[4]; Table 11: A-1.3 0 ppm, Pyrisoxazole 0.5 ppm
  Observed Activity (%): 20%
[4]; Table 12: A-1.3 0 ppm, Pyrisoxazole 0.0625 ppm
  Observed Activity (%): 0%
[4]; Table 12: A-1.3 0 ppm, Pyrisoxazole 0.125 ppm
  Observed Activity (%): 0%
[4]; Table 12: A-1.3 0 ppm, Pyrisoxazole 0.25 ppm
  Observed Activity (%): 0%
[4]; Table 12: A-1.3 0 ppm, Pyrisoxazole 0.5 ppm
  Observed Activity (%): 70%
[4]; Table 12: A-1.3 0 ppm, Pyrisoxazole 1 ppm
  Observed Activity (%): 90%
[2]; Pyrisoxazole 0.5 ppm
  Observed Activity (%): 20%
[2]; Pyrisoxazole 1 ppm
  Observed Activity (%): 70%

Source: patent US20230172209A1, “FUNGICIDAL COMPOSITIONS” (SYNGENTA CROP PROTECTION AG, priority 2020, published 2023)
